{
  "source": "ChEMBL document CHEMBL5257046",
  "about": "“Characterization of Serrulatane Diterpenoids in Eremophila phyllopoda subsp. phyllopoda by Triple High-Resolution α-Glucosidase/PTP1B/Radical Scavenging Profiling, NMR Spectroscopy, DFT-GIAO NMR, and Electronic Circular Dichroism Calculations” (J Nat Prod, 2023)",
  "key": {"[1]": {"biological_target": "T1, Tyrosine-protein phosphatase non-receptor type 1 (Homo sapiens, UniProt P18031)", "T1 sequence (P18031 whole entry)": "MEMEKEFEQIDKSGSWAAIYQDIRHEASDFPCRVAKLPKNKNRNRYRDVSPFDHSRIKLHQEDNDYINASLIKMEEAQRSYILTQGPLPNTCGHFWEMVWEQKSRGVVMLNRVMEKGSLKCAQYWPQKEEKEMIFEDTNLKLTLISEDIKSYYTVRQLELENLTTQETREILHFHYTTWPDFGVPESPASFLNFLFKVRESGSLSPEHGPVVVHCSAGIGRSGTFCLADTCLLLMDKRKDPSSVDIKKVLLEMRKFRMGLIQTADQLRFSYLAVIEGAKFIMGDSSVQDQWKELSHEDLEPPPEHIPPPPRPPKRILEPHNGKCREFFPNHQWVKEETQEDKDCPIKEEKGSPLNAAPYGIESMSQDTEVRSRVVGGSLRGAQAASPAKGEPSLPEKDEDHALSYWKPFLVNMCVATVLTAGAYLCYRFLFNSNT", "assay": "Inhibition of PTP1B (unknown origin) using pNPP as substrate preincubated for 10 mins followed by substrate addition and measured every 30 sec for 10 mins by microplate photometer analysis"}, "[2]": {"biological_target": "Alpha glucosidase (Homo sapiens, UniProt O43451+P10253+P14410+Q2M2H8)", "assay": "Inhibition of alpha-glucosidase (unknown origin) using p-nitrophenyl-glycoside as substrate preincubated for 10 mins followed by substrate addition by microplate reader analysis", "assay_type": "protein assay"}},
  "data": [
    {"compound": "CCCCCCCCCCCCCCCC(=O)C1=C(O)C(CO)OC1=O", "note": "(configuration not stated)", "values": [
      {"measurement": "IC50", "setting": "[1]", "result": 14.4, "unit": "µM"}
    ]},
    {"compound": "CC(C)=CCC[C@H](CO)[C@@H]1CC[C@@H](CO)c2c(O)cc(C)cc21", "values": [
      {"measurement": "IC50", "setting": "[2]", "result": 28.4, "unit": "µM"}
    ]},
    {"compound": "CC(C)=CCC[C@H](C)[C@H]1c2cc(C)cc(O)c2[C@H](C)C[C@H]1O", "values": [
      {"measurement": "IC50", "setting": "[1]", "result": 105, "unit": "µM"}
    ]},
    {"compound": "CC(C)=CCC[C@H](C)[C@@H]1CC[C@@H](CO)c2c(O)cc(C)cc21", "values": [
      {"measurement": "IC50", "setting": "[1]", "result": 20, "unit": "µM"},
      {"measurement": "IC50", "setting": "[2]", "result": 64.2, "unit": "µM"}
    ]},
    {"compound": "CC(C)=CCC[C@H](C)[C@@H]1C[C@H](O)[C@@H](C)c2c(O)cc(C)cc21", "values": [
      {"measurement": "IC50", "setting": "[1]", "result": 80, "unit": "µM"}
    ]},
    {"compound": "CC(C)=CCC[C@H](C)c1cccc2c(O)cc(C)cc12", "values": [
      {"measurement": "IC50", "setting": "[1]", "result": 16.6, "unit": "µM"}
    ]}
  ]
}
